# Test results reported in patent US8466172B2, “Stabilization of hypoxia inducible factor (HIF) alpha” (FibroGen, Inc., priority 2001, dated 2013).
# Several values for one entry are separate records, joined by “and”; a condition that tells them apart may be missing. Equal values may be shown once.
# System: Wistar rats, acute myocardial infarction (AMI)
# Assay: Cardiac ischemia Experiment I, 4-week study after acute myocardial infarction
# Type: in vivo, rat
# Conditions: for fractional shortening: Treated-MI
# Excerpt: Seventy adult male Wistar rats (200-250 g) were anaesthetized and subjected to left coronary artery occlusion to produce acute myocardial infarction (AMI). Nine animals were subjected to identical surgery without coronary artery ligation. Twenty-four to forty-eight hours after surgery, electrocardiogram (ECG) electrodes were applied to the paws and a 15 MHz linear probe (Acuson Corp., Mountain View Calif.) was applied to the chest to obtain short axis transthoracic echocardiography (2DE) images at the mid-papillary muscle level. The probe was moved cephalad or caudad and angulated until clear endocardial visualization of the left ventricular cavity was detected. Images were obtained using the Sequoia ultrasound system (Acuson). Animals with less than 20% fractional shortening and regional wall motion abnormality on the 2DE were randomized to treatment with compound A (n=14) or vehicle (n=12). The sham controls were also randomized to treatment with compound A (n=4) or vehicle (n=5).
# Animals were treated by gavage 2 times per day for the duration of the experiment with compound A at 50 mg/kg or with vehicle alone. Serum level of drug was determined periodically to establish that treated animals received sufficient and consistent amount of drug and that the measured levels were sufficient to inhibit prolyl 4-hydroxylase, a representative 2-oxoglutarate dioxygenase.
# Serial 2DE images were obtained weekly. Three short axis 2DE digital clips containing 5 or more systolic and diastolic frames were captured and stored. Two observers blinded to treatment did measurements off-line. For the measurements, the digital images were slowed and frozen at end systole and end diastole. Two systolic and two diastolic frames from each of the three digital clips were measured by consensus and averaged. The anterior wall in systole (AWS) and diastole (AWD), posterior wall in systole (PWS) and diastole (PWD), and left ventricular end systolic (LVESD) and end diastolic (LVEDD) were measured according to the American Society for Echocardiology (ASE) leading-edge method. For consistency, measurements were done from the anterior to the posterior mid points of the left ventricular cavity and were randomly repeated to ensure reproducibility (reproducibility was approximately 96%).
# At four weeks of treatment, in vivo hemodynamic measurements were determined, as described below, both before and after infusion (0.2 ml over 1 minute) of […] isoproterenol via the femoral vein. Hearts were then excised and weighed as described below.
# To collect in vivo hemodynamic measurements, animals were anaesthetized and the right carotid artery was dissected free from surrounding tissues and canulated with an SPR-671 ultra-miniature pressure transducer (Millar Instruments, Inc., Houston Tex.). The catheter was then advanced into the left ventricle. After steady state was established, baseline heart rate (HR), developed pressure (DP), contractile index (CI), left ventricle systolic pressure (SBP) and end diastolic pressure (LVEDP), and maximal rate of pressure rise and fall (+dP/dt and −dP/dt, respectively) were recorded.
# Following hemodynamic measurement, hearts were excised and weighed. Pieces of scarred myocardium, and right ventricle and left ventricle myocardium distant from the site of infarct were dissected out and weighed. Hydroxyproline and proline were determined by the method of Palmerini et al. (1985, J Chromatogr 339:285-92) except that L-azetidine-2-carboxylic acid (Sigma-Aldrich) was substituted for 3,4-dehydroproline as the internal standard.
smiles,measurement,setting,value
"O=C(O)c1c[nH]c2c(ccc3cccnc32)c1=O [Compound A, 4-oxo-1,4-dihydro-[1,10]phenanthroline-3-carboxylic acid]",Hydroxyproline/proline in infarct scar,4 weeks post-MI,0.34 ± 0.08
same,Hydroxyproline/proline in non-infarct left ventricular myocardium,4 weeks post-MI,0.12 ± 0.06
same,Hydroxyproline/proline in non-infarct right ventricular myocardium,4 weeks post-MI,0.13 ± 0.02
same,+dP/dt,"4 weeks post-MI, baseline",9477 ± 581 mm Hg/sec
same,Developed pressure,"4 weeks post-MI, baseline",133 ± 6 mm Hg
same,Systolic BP,"4 weeks post-MI, baseline",143 ± 7 mm Hg
same,−dP/dt,"4 weeks post-MI, baseline",9978 ± 827 mm Hg/sec
same,+dP/dt,"4 weeks post-MI, isoproterenol",16830 ± 1195 mm Hg/sec
same,Developed pressure,"4 weeks post-MI, isoproterenol",121 ± 9 mm Hg
same,Systolic BP,"4 weeks post-MI, isoproterenol",130 ± 9 mm Hg
same,−dP/dt,"4 weeks post-MI, isoproterenol",9234 ± 703 mm Hg/sec
same,fractional shortening,week 0 (baseline),10% and 10 ± 0.8%
same,fractional shortening,week 1,17 ± 1%
same,fractional shortening,week 2,20% and 20 ± 2%
same,fractional shortening,week 3,21 ± 2%
same,fractional shortening,week 4,21 ± 3%
same,increase in fractional shortening relative to baseline,week 2,79%
